Experimental data published in patent publication US8273774B2, “Phenoxypyridinylamide compounds” (AstraZeneca AB, priority 2008, dated 2012).

Target: recombinant Human Phosphodiesterase B2 (PDE4B2) (Homo sapiens, UniProt Q07343)
Assay: Human Phosphodiesterase B2 Radiometric Assay
Type: biochemical
Settings: 0.1 μg/mL recombinant PDE4B2; preincubated at 30 C for 30 min; [3H]cyclic AMP 8 nM, stopped after 20 min; yttrium silicate SPA beads; read-out: PDE4B2 pIC50 (converted)
Procedure, shortened: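 SPA read-out: product 5′AMP binds yttrium silicate beads (added with 18 mM ZnSO4 after 20 min) in preference to [3H]cAMP substrate, given at 8 nM final.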

Sequence of recombinant Human Phosphodiesterase B2 (PDE4B2) (Q07343 1-564 isoform Q07343-2): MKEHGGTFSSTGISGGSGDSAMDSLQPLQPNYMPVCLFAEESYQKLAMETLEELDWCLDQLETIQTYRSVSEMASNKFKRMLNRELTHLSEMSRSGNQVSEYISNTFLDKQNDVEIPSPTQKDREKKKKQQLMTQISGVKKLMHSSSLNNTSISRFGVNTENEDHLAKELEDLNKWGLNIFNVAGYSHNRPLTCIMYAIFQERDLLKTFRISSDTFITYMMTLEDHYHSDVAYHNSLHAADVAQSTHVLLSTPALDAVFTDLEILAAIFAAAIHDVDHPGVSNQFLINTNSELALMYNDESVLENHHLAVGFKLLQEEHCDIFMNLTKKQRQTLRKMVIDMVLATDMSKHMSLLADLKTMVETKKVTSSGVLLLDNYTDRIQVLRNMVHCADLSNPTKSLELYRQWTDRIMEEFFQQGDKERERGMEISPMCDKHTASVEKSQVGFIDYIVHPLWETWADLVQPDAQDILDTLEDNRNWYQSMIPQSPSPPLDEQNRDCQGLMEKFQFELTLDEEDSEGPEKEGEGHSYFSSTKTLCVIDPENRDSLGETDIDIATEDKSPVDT

Row | Structure (SMILES) | IC50 [nM]
1 | C[C@@H]1CN(CCc2ccc(-c3cccc(Oc4ncc(F)cc4C(=O)N[C@H]4CC[C@@H](NC(=O)c5cc6n(n5)CCCC6)CC4)c3)cc2)C[C@H](C)N1 [Example 162, N-((1s,4s)-4-(2-(4′-(2-((3S,5R)-3,5-Dimethylpiperazin-1-yl)ethyl)biphenyl-3-yloxy)-5-fluoronicotinamido)cyclohexyl)-4,5,6,7-tetrahydropyrazolo[1,5-a]pyridine-2-carboxamide] | 0.0398
2 | Cc1nc(C(=O)N[C@H]2CC[C@@H](NC(=O)c3cc(F)cnc3Oc3cccc(-c4ccc(O)cc4CN(C)C(C)(C)C)c3)CC2)cs1 [Example 26, N-((1s,4s)-4-(2-(2′-((tert-butyl(methyl)amino)methyl)-4′-hydroxybiphenyl-3-yloxy)-5-fluoronicotinamido)cyclohexyl)-2-methylthiazole-4-carboxamide] | 0.2
3 | C[C@@H]1CN(Cc2ccc(-c3cccc(Oc4ncc(F)cc4C(=O)N[C@H]4CC[C@@H](NC(=O)c5cn6cc(F)ccc6n5)CC4)c3)c(CN3CCOCC3)c2)C[C@H](C)N1 [Example 122, N-((1s,4s)-4-(2-(4′-(((3S,5R)-3,5-dimethylpiperazin-1-yl)methyl)-2′-(morpholinomethyl)biphenyl-3-yloxy)-5-fluoronicotinamido)cyclohexyl)-6-fluoroimidazo[1,2-a]pyridine-2-carboxamide] | 0.0398
4 | Cc1cc(C(=O)N[C@H]2CC[C@@H](NC(=O)c3cc(F)cnc3Oc3cccc(-c4ccc(CCN5CCCN(C)CC5)cc4)c3)CC2)nn1C [Example 166, N-((1s,4s)-4-(1,5-Dimethyl-1H-pyrazole-3-carboxamido)cyclohexyl)-5-fluoro-2-(4′-(2-(4-methyl-1,4-diazepan-1-yl)ethyl)biphenyl-3-yloxy)nicotinamide] | 0.0398
5 | Cc1nc(C(=O)N[C@H]2CC[C@@H](NC(=O)c3cc(F)cnc3Oc3cccc(-c4ccc(CCCNCCCO)cc4)c3)CC2)cs1 [Example 136, N-((1s,4s)-4-(5-fluoro-2-(4′-(3-(3-hydroxypropylamino)propyl)biphenyl-3-yloxy)nicotinamido)cyclohexyl)-2-methylthiazole-4-carboxamide] | 0.1
6 | O=C(N[C@H]1CC[C@@H](NC(=O)c2cc(F)cnc2Oc2cccc(-c3ccc(CCN4CCNCC4)cc3)c2)CC1)c1cnc2ccccc2n1 [Example 186, N-((1s,4s)-4-(5-Fluoro-2-(4′-(2-(piperazin-1-yl)ethyl)biphenyl-3-yloxy)nicotinamido)cyclohexyl)quinoxaline-2-carboxamide] | 0.0398
7 | Cc1cccc2nc(C(=O)N[C@H]3CC[C@@H](NC(=O)c4cc(F)cnc4Oc4cccc(-c5ccc(CN6CCCOCC6)cc5)c4)CC3)cn12 [Example 46, N-((1s,4s)-4-(2-(4′-((1,4-oxazepan-4-yl)methyl)biphenyl-3-yloxy)-5-fluoronicotinamido)cyclohexyl)-5-methylimidazo[1,2-a]pyridine-2-carboxamide] | 0.126
8 | C[C@@H]1CN(CCCc2ccc(-c3cccc(Oc4ncc(F)cc4C(=O)N[C@H]4CC[C@@H](NC(=O)c5nc(CO)cs5)CC4)c3)cc2)C[C@H](C)N1 [Example 150, N-((1s,4s)-4-(2-(4′-(3-((3S,5R)-3,5-dimethylpiperazin-1-yl)propyl)biphenyl-3-yloxy)-5-fluoronicotinamido)cyclohexyl)-4-(hydroxymethyl)thiazole-2-carboxamide] | 0.0794
9 | CN(C)Cc1cc(O)ccc1-c1cccc(Oc2ncc(F)cc2C(=O)N[C@H]2CC[C@@H](NC(=O)c3nc4ccccc4s3)CC2)c1 [Example 44, N-((1s,4s)-4-(2-(2′-((dimethylamino)methyl)-4′-hydroxybiphenyl-3-yloxy)-5-fluoronicotinamido)cyclohexyl)benzo[d]thiazole-2-carboxamide] | 0.1
10 | Cc1cc(C(=O)N[C@H]2CC[C@@H](NC(=O)c3cc(F)cnc3Oc3cccc(-c4cccc(CCCN5CCNCC5)c4)c3)CC2)nn1C [Example 108, N-((1s,4s)-4-(1,5-dimethyl-1H-pyrazole-3-carboxamido)cyclohexyl)-5-fluoro-2-(3′-(3-(piperazin-1-yl)propyl)biphenyl-3-yloxy)nicotinamide] | 0.02
11 | C[C@@H]1CN(Cc2ccc(-c3cccc(Oc4ncc(F)cc4C(=O)N[C@H]4CC[C@@H](NC(=O)c5cn6cc(F)ccc6n5)CC4)c3)c(CN3CCSCC3)c2)C[C@H](C)N1 [Example 169, N-((1s,4s)-4-(2-(4′-(((3S,5R)-3,5-Dimethylpiperazin-1-yl)methyl)-2′-(thiomorpholinomethyl)biphenyl-3-yloxy)-5-fluoronicotinamido)cyclohexyl)-6-fluoroimidazo[1,2-a]pyridine-2-carboxamide] | 0.02
12 | C[C@@H]1CN(Cc2ccc(-c3cccc(Oc4ncc(F)cc4C(=O)N[C@H]4CC[C@@H](NC(=O)c5cccc6cccnc56)CC4)c3)c(CN3CCOCC3)c2)C[C@H](C)N1 [Example 146, N-((1s,4s)-4-(2-(4′-(((3S,5R)-3,5-dimethylpiperazin-1-yl)methyl)-2′-(morpholinomethyl)biphenyl-3-yloxy)-5-fluoronicotinamido)cyclohexyl)quinoline-8-carboxamide] | 0.0316
13 | Cc1nc(C(=O)N[C@H]2CC[C@@H](NC(=O)c3cc(F)cnc3Oc3cccc(-c4ccc(CCCN5CCCC5)cc4)c3)CC2)cs1 [Example 73, N-((1s,4s)-4-(5-fluoro-2-(4′-(3-(pyrrolidin-1-yl)propyl)biphenyl-3-yloxy)nicotinamido)cyclohexyl)-2-methylthiazole-4-carboxamide] | 0.0631

The remaining lines, values ahead:

Row | IC50 [nM] | Structure (SMILES)
14 | 0.0501 | Cc1nc(C(=O)N[C@H]2CC[C@@H](NC(=O)c3cc(F)cnc3Oc3cccc(-c4ccc(CCCN5CCCNCC5)cc4)c3)CC2)cs1 [Example 135, N-((1s,4s)-4-(2-(4′-(3-(1,4-diazepan-1-yl)propyl)biphenyl-3-yloxy)-5-fluoronicotinamido)cyclohexyl)-2-methylthiazole-4-carboxamide]
15 | 0.794 | O=C(N[C@H]1CC[C@@H](NC(=O)c2cc(F)cnc2Oc2cccc(-c3ccc(O)cc3CN3CCOCC3)c2)CC1)c1cccc(O)n1 [Example 40, N-((1s,4s)-4-(5-fluoro-2-(4′-hydroxy-2′-(morpholinomethyl)biphenyl-3-yloxy)nicotinamido)cyclohexyl)-6-hydroxypicolinamide]
16 | 0.126 | O=C(N[C@H]1CC[C@@H](NC(=O)c2cc(F)cnc2Oc2cccc(-c3ccc(CCCNCCCO)cc3)c2)CC1)c1cc2n(n1)CCCC2 [Example 128, N-((1s,4s)-4-(5-fluoro-2-(4′-(3-(3-hydroxypropylamino)propyl)biphenyl-3-yloxy)nicotinamido)cyclohexyl)-4,5,6,7-tetrahydropyrazolo[1,5-a]pyridine-2-carboxamide]
17 | 0.0251 | Cc1cc(C(=O)N[C@H]2CC[C@@H](NC(=O)c3cc(F)cnc3Oc3cccc(-c4ccc(CN5CCSCC5)cc4CN4CCOCC4)c3)CC2)nn1C [Example 138, N-((1s,4s)-4-(1,5-dimethyl-1H-pyrazole-3-carboxamido)cyclohexyl)-5-fluoro-2-(2′-(morpholinomethyl)-4′-(thiomorpholinomethyl)biphenyl-3-yloxy)nicotinamide]
18 | 0.0398 | C[C@@H]1CN(CCc2ccc(-c3cccc(Oc4ncc(F)cc4C(=O)N[C@H]4CC[C@@H](NC(=O)c5ccn(C)n5)CC4)c3)cc2)C[C@H](C)N1 [Example 163, 2-(4′-(2-((3S,5R)-3,5-Dimethylpiperazin-1-yl)ethyl)biphenyl-3-yloxy)-5-fluoro-N-((1s,4s)-4-(1-methyl-1H-pyrazole-3-carboxamido)cyclohexyl)nicotinamide]
19 | 0.0501 | Cc1nc(C(=O)N[C@H]2CC[C@@H](NC(=O)c3cc(F)cnc3Oc3cccc(-c4ccc(CCN5CCNCC5)cc4)c3)CC2)cs1 [Example 177, N-((1s,4s)-4-(5-Fluoro-2-(4′-(2-(piperazin-1-yl)ethyl)biphenyl-3-yloxy)nicotinamido)cyclohexyl)-2-methylthiazole-4-carboxamide]
20 | 0.02 | Cc1nc(C(=O)N[C@H]2CC[C@@H](NC(=O)c3cc(F)cnc3Oc3cccc(-c4ccc(O)cc4CN4CCCOCC4)c3)CC2)cs1 [Example 15, N-((1s,4s)-4-(2-(2′-((1,4-oxazepan-4-yl)methyl)-4′-hydroxybiphenyl-3-yloxy)-5-fluoronicotinamido)cyclohexyl)-2-methylthiazole-4-carboxamide]
21 | 0.0251 | Cc1ccc(O)c(C(=O)N[C@H]2CC[C@@H](NC(=O)c3cc(F)cnc3Oc3cccc(-c4ccc(O)cc4CN4CCOCC4)c3)CC2)c1 [Example 28, 5-fluoro-2-(4′-hydroxy-2′-(morpholinomethyl)biphenyl-3-yloxy)-N-((1s,4s)-4-(2-hydroxy-5-methylbenzamido)cyclohexyl)nicotinamide]
22 | 0.0126 | O=C(N[C@H]1CC[C@@H](NC(=O)c2cccc3cccnc23)CC1)c1cc(F)cnc1Oc1cccc(-c2ccc(CCCNCCCO)cc2)c1 [Example 161, N-((1s,4s)-4-(5-Fluoro-2-(4′-(3-(3-hydroxypropylamino)propyl)biphenyl-3-yloxy)nicotinamido)cyclohexyl)quinoline-8-carboxamide]
23 | 0.02 | Cc1cccc2nc(C(=O)N[C@H]3CC[C@@H](NC(=O)c4cc(F)cnc4Oc4cccc(-c5ccc(CN6C[C@@H](C)N[C@@H](C)C6)cc5CN5CCOC[C@@H]5C)c4)CC3)cn12 [Example 175, N-((1s,4s)-4-(2-(4′-(((3S,5R)-3,5-Dimethylpiperazin-1-yl)methyl)-2′-(((S)-3-methylmorpholino)methyl)biphenyl-3-yloxy)-5-fluoronicotinamido)cyclohexyl)-5-methylimidazo[1,2-a]pyridine-2-carboxamide]
24 | 0.158 | Cc1cc(C(=O)N[C@H]2CC[C@@H](NC(=O)c3cc(F)cnc3Oc3cccc(-c4cccc(CN5C[C@@H](C)N[C@@H](C)C5)c4Cl)c3)CC2)nn1C [Example 107, 2-(2′-chloro-3′-(((3S,5R)-3,5-dimethylpiperazin-1-yl)methyl)biphenyl-3-yloxy)-N-((1s,4s)-4-(1,5-dimethyl-1H-pyrazole-3-carboxamido)cyclohexyl)-5-fluoronicotinamide]
